Results as given in patent US20030124132A1 (University of Texas, published 2003).

Experiments:
[1] = tested on: bEnd 3 cells; assay: Cell bound coagulation assay on stimulated endothelial cells (Factor Xa generation); format: cell-based, mouse; settings: for Factor Xa generation due to Factor VIIa production: mix with 2 μg/ml factor VII and 0.01 μg/ml factor VIIa; for Factor Xa generation: mix with 0.5 μg/ml factor VIIa
Description: (§1) To assay the coagulation induction of stimulated versus unstimulated endothelial cells, bend 3 cells were seeded in 48 well tissue culture plates at a density of 1×10^4 cells per well and allowed to adhere overnight. Cells were stimulated with endotoxin (0.5 μg/ml and 10 μg/ml) or TNFα (500 U/ml) for 4 h at 37° C. […] After incubation for 45 min at room temperature, cells were washed and incubated with various coagulation factor mixes as follows: (1) 0.5 μg/ml factor VIIa in a mix containing 2.8 μg/ml factor IX, 3.4 μg/ml factor X, 50 μM phospholipids, in calcium buffer (as specified above); (2) 0.01 μg/ml factor VIIa in a mix as in (1); (3) 2 μg/ml factor VII (Calbiochem-Novabiochem, San Diego, Calif.) in a mix as in (1); (4) 2 μg/ml factor VII. 0.01 μg/ml factor VIIa in a mix as in (1). The supernatant of wells was transferred into a 96 well ELISA plate. Substrate S2765 was added and Factor Xa generation measured alongside different concentrations of Factor Xa standard (7 nkatS2222; 0.7 nkatS2222; 0.07 nkatS2222). OD405 nm values were calculated as nkatS2222 Factor Xa from the Factor Xa standard curve.
as §1, with “bEnd” for “To assay the coagulation induction of stimulated versus unstimulated endothelial cells, bend”, “with” for “with various”, “mix” for “mixes”, “follows:” for “follows: (1)”, “buffer;” for “buffer (as specified above); (2) 0.01 μg/ml factor VIIa in a mix as in (1); (3) 2 μg/ml factor VII (Calbiochem-Novabiochem, San Diego, Calif.) in a mix as in (1); (4) 2 μg/ml factor VII. 0.01 μg/ml factor VIIa in a mix as in (1). The”

[2] = tested on: C1300 (Muγ) tumors; assay: Coaguligand (B21-2/10H10 + tTF) treatment of C1300 (Muγ) tumors; format: in vivo, BALB/c nu/nu mice; settings: paraffin sections, 30 minutes to 24 hours after administration
Text: To improve the C1300 (Muγ) tumor model, the C1300 (Muγ) cell line was subcloned into a cell line that can grow without being mixed with its parental cell, C1300, but still express the I-A^d MHC Class II antigen on the endothelial cells of the tumor. […] Vessels in other normal tissues were unstained.
Vessels contained platelet aggregates, packed red cells and fibrin. At this time, tumor-cells were viable, being indistinguishable morphologically from tumor cells in untreated mice. […]
To establish tumors, 10^6 to 1.5×10^7 tumor cells were injected subcutaneously into the right anterior flank of the mice. […] Other mice received equivalent quantities IgG, Fab′ or bispecific antibody alone. […]
Twenty-four hours after being injected with tTF or immunoglobulin-tTF conjugates, the mice were anesthetized with metophane and were exsanguinated by perfusion with heparinized saline. […] Blood vessels having open lumens containing erythrocytes and blood vessels containing thrombi were counted. […]
Other mice received equivalent quantities of bispecific antibody alone. […] Perpendicular tumor diameters were measured at regular intervals and tumor volumes were calculated.

[3] = tested on: 2F2B mouse endothelial cells; assay: Binding of tTF to tissue factor-expressing endothelial cells (FACS, cell bound coagulation assay); format: cell-based; settings: FACS analysis or cell bound coagulation assay
Description: Cells were washed and coagulation factor mix (as described above) was added. S2765 substrate was added and Factor Xa generation was measured as described above.
2F2B cells were stimulated with LPS (20 μg/ml) or TNFα (500 U/ml) for 4 h at 37° C. […] Fluorescent cells were detected on a flow cytometer (Becton Dickinson, San Jose, Calif.).

[4] = tested on: L540 tumors; assay: Anti-tumor activity of anti-VCAM-1·tTF coaguligand in L540 tumors; format: in vivo, SCID mice; settings: controls
Description: The anti-tumor activity of anti-VCAM-1-tTF coaguligand was determined in SCID mice bearing 0.3-0.4 cm^3 L540 tumors. The drug was administered i.v. 3 times at intervals of 4 days.

tTF: extracellular domain of the mature Tissue Factor protein (amino acid 1-219), recombinant; depyrogenated in Example X
Factor Xa generation due to Factor VIIa production ([1]; cells stimulated with 0.5 μg/ml LPS (row Medium = stimulant alone)): 3.00 nkats2222 | Factor Xa generation ([1]; cells stimulated with 0.5 μg/ml LPS, then incubated with row agent (row Medium = stimulant alone)): 2.00 nkats2222 | Factor Xa generation ([1]; cells stimulated with 10 μg/ml LPS, then incubated with row agent (row Medium = stimulant alone)): 2.91 nkats2222 | Factor Xa generation ([1]; cells stimulated with TNFα (500 U/ml), then incubated with row agent (row Medium = stimulant alone)): 0.67 nkats2222 | Factor Xa generation due to Factor VIIa production ([1]; cells stimulated with TNFα (row Medium = stimulant alone)): 1.91 nkats2222 | Factor Xa generation ([1]; cells stimulated with medium, then incubated with row agent): 0.40 nkats2222 | Factor Xa generation due to Factor VIIa production ([1]; cells stimulated with medium): 0.70 nkats2222 | thrombi or abnormalities in normal organs [2]: neither thrombi, nor histological or morphological abnormalities were visible | binding to endothelial cells expressing tissue factor [3]: no binding of tTF to endothelial cells | effect on tumor growth [4]: did not affect tumor growth
